Reference: patent US11884675B2, “Heterocyclic compounds as triggering receptor expressed on myeloid cells 2 agonists and methods of use” (AMGEN INC., priority 2020, dated 2024)

Target: hTREM2 (Homo sapiens, UniProt Q9NZC2)
Assay: TREM2 agonist potency by Syk phosphorylation (AlphaLisa) in HEK293T-hTREM2 cells, used for Examples 306-429
Assay type: cell-based
Design: expressed in transfected cells; host or cells: HEK293T (HEK293T-hTREM2 cells)
Settings: HEK293 Cells
Protocol: In vitro Measurement of Triggering Receptor Expressed on Myeloid Cells 2 activity using cellular phosphorylation of Spleen Tyrosine Kinase (“Syk”) Assays used for Examples 306-429
Measurement of TREM2 agonist potency was done using a HEK cell line expressing human TREM2 and DAP12 (HEK293T-hTREM2 cells). Binding of small molecules to, and activation of, TREM2 increases the phosphorylation of Syk. The resultant levels of Syk phosphorylation were measured using a commercial AlphaLisa reagent kit. To perform the assay, HEK-hTREM2 cells were plated at 14,000 cells per well in a 384 well plate, in 25 μL, of complete growth media and incubated at 37° C., 5% CO2 for 20-24 hours. Prior to the assay, test compounds were diluted in the 384 well plates in assay buffer and allowed to equilibrate for 30 minutes. Growth media was removed from cell plates by inversion on blotting paper, and 25 μL of test compounds in assay buffer was added to cells. Cells were incubated for 45 minutes at room temperature. After 45 minutes, assay buffer was removed and 10 μL of lysis buffer was added. Plates were shaken for 20 minutes at 350 RPM at room temperature. After complete lysis, AlphaLisa reagents were added to the lysate, and fluourescence intensity was measured using a Perkin Elmer Envision plate reader. Intensities were used to generate a standard curve, and % activation was calculated. Curve fitting was performed using Prism v9 software, log(agonist) vs response-variable slope (four parameters), and EC50s were calculated from the curve fit.
The results presented in Table 20 have been generated with the in vitro assay described above for Examples 306-429. This assay may be used to test any of the compounds described herein to assess and characterize a compound's ability to act as an agonist of TREM2.

Chain of hTREM2 (Q9NZC2 19-230): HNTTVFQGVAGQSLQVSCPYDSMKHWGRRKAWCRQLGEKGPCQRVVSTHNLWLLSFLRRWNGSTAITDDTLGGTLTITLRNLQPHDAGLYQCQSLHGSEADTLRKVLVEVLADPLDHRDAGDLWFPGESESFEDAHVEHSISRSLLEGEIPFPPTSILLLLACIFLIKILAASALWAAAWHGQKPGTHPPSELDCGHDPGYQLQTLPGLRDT
Chain of hTREM2 (O43914 22-113 partner): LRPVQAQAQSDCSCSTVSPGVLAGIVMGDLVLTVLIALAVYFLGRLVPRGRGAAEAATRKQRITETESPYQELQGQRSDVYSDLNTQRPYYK

EC50, 50 to 500 nM:
Cc1ccc2c(-c3ccc(F)cc3F)nc([C@H]3C[C@@H](C)O[C@@H](c4cnn(C5CC5)c4)C3)nc2n1 [Example 416, 2-((2R,4S,6R)-2-(1-cyclopropyl-1H-pyrazol-4-yl)-6-methyltetrahydro-2H-pyran-4-yl)-4-(2,4-difluorophenyl)-7-methylpyrido[2,3-d]pyrimidine]
Cc1cnc2c(-c3ccc(Cl)cc3F)nc(N3C[C@@H](c4cnn(C5CC5)c4)O[C@@H](C)C3)nc2n1 [Example 423, (2R,6S)-4-(4-(4-chloro-2-fluorophenyl)-7-methylpteridin-2-yl)-2-(1-cyclopropyl-1H-pyrazol-4-yl)-6-methylmorpholine]
Cc1nc2nc([C@@H]3CCO[C@@H](c4cnn(C5CC5)c4)C3)nc(C34CC(C(F)(F)F)(C3)C4)c2nc1C (stereo in doubt) [Example 365, 2-(2-(1-cyclopropyl-1H-pyrazol-4-yl)tetrahydro-2H-pyran-4-yl)-6,7-dimethyl-4-(3-(trifluoromethyl)bicyclo[1.1.1]pentan-1-yl)pteridine]
Cc1cnc2c(-c3ccc(F)cc3F)nc(N3C[C@H](C)O[C@@H](c4cnn(C5CC5)c4)C3)nc2n1 (racemic) [Example 370, 2-(1-cyclopropyl-1H-pyrazol-4-yl)-4-(4-(2,4-difluorophenyl)-7-methylpteridin-2-yl)-6-methylmorpholine]
Cc1cc([C@H]2C[C@@H](c3cc4nc(C)cnc4c(-c4ccc(F)cc4F)n3)CCO2)ccn1 (racemic) [Example 307, 5-(2,4-difluorophenyl)-2-methyl-7-(2-(2-methylpyridin-4-yl)tetrahydro-2H-pyran-4-yl)pyrido[3,4-b]pyrazine]
Cc1cnc2c(-c3ccc(F)cc3F)nc([C@H]3C[C@@H](C)O[C@@H](c4cnn(C5CC5)c4)C3)cc2n1 [Example 417, 7-((2R,4S,6R)-2-(1-cyclopropyl-1H-pyrazol-4-yl)-6-methyltetrahydro-2H-pyran-4-yl)-5-(2,4-difluorophenyl)-2-methylpyrido[3,4-b]pyrazine]
Cc1cc(C2CN(c3nc(-c4ccc(Cl)cc4C(F)(F)F)c4nc(C)c(C)nc4n3)CCO2)ccn1 (stereo not drawn) [Example 343, 4-(4-(4-chloro-2-(trifluoromethyl)phenyl)-6,7-dimethylpteridin-2-yl)-2-(2-methylpyridin-4-yl)morpholine]
Cc1cnc2c(-c3ccc(F)cc3F)nc([C@H]3C[C@@H](C)O[C@@H](c4cnn(C5CC5)c4)C3)nc2n1 [Example 415, 2-((2R,4S,6R)-2-(1-cyclopropyl-1H-pyrazol-4-yl)-6-methyltetrahydro-2H-pyran-4-yl)-4-(2,4-difluorophenyl)-7-methylpteridine]
Cc1nc2nc(N3C[C@@H](C)O[C@H](c4cnn(C5CC5)c4)C3)nc(C34CC(C(F)(F)F)(C3)C4)c2nc1C [Example 409, (2R,6R)-2-(1-cyclopropyl-1H-pyrazol-4-yl)-4-(6,7-dimethyl-4-(3-(trifluoromethyl)bicyclo[1.1.1]pentan-1-yl)pteridin-2-yl)-6-methylmorpholine]
Cc1cnc2c(-c3ccc(Cl)cc3F)nc(N3C[C@@H](C)O[C@@H](c4cnn(C5CC5)c4)C3)cc2n1 (racemic) [Example 368, 4-(5-(4-chloro-2-fluorophenyl)-2-methylpyrido[3,4-b]pyrazin-7-yl)-2-(1-cyclopropyl-1H-pyrazol-4-yl)-6-methylmorpholine]

EC50, 500 to 3000 nM:
Cc1cnc2c(-c3ccc(F)cc3F)nc([C@@H]3CCO[C@@H](c4cnn(C5CC5)c4)C3)nc2n1 [Example 338, 2-((2R,4R)-2-(1-cyclopropyl-1H-pyrazol-4-yl)tetrahydro-2H-pyran-4-yl)-4-(2,4-difluorophenyl)-7-methylpteridine]
Cc1cnc2c(-c3ccc(Cl)cc3F)nc([C@@H]3CCO[C@@H](c4cnn(C5CC5)c4)C3)nc2n1 [Example 350, 4-(4-chloro-2-fluorophenyl)-2-((2R,4R)-2-(1-cyclopropyl-1H-pyrazol-4-yl)tetrahydro-2H-pyran-4-yl)-7-methylpteridine]

EC50, ≤ 50 nM:
Cc1nc2cc(N3CCOC(c4cnn(C5CC5)c4)C3)nc(-c3ccc(F)cc3F)c2nc1C (stereo not drawn) [Example 342, 2-(1-cyclopropyl-1H-pyrazol-4-yl)-4-(5-(2,4-difluorophenyl)-2,3-dimethylpyrido[3,4-b]pyrazin-7-yl)morpholine]
Cc1nc2nc(N3C[C@@H](c4cnn(C5CC5)c4)O[C@@H](C)C3)nc(C34CC(C(F)(F)F)(C3)C4)c2nc1C [Example 410, (2R,6S)-2-(1-cyclopropyl-1H-pyrazol-4-yl)-4-(6,7-dimethyl-4-(3-(trifluoromethyl)bicyclo[1.1.1]pentan-1-yl)pteridin-2-yl)-6-methylmorpholine]
Cc1nc2nc(N3C[C@@H](C)O[C@@H](c4cnn(C5CC5)c4)C3)nc(C34CC(C(F)(F)F)(C3)C4)c2nc1C [Example 411, (2S,6R)-2-(1-cyclopropyl-1H-pyrazol-4-yl)-4-(6,7-dimethyl-4-(3-(trifluoromethyl)bicyclo[1.1.1]pentan-1-yl)pteridin-2-yl)-6-methylmorpholine]
Cc1cnc2c(C34CC(C(F)(F)F)(C3)C4)nc(N3CCO[C@H](c4cnn(C5CC5)c4)C3)nc2n1 [Example 359, (R)-2-(1-cyclopropyl-1H-pyrazol-4-yl)-4-(7-methyl-4-(3-(trifluoromethyl)bicyclo[1.1.1]pentan-1-yl)pteridin-2-yl)morpholine]
Cc1cc(C2CN(c3cc4nc(C)c(C)cc4c(-c4ccc(Cl)cc4F)n3)CCO2)ccn1 (stereo not drawn) [Example 344, 4-(5-(4-chloro-2-fluorophenyl)-2,3-dimethyl-1,6-naphthyridin-7-yl)-2-(2-methylpyridin-4-yl)morpholine]
Cc1cnc2c(C34CC(C(F)(F)F)(C3)C4)nc([C@H]3CCO[C@@H](c4cnn(C5CC5)c4)C3)nc2n1 [Example 407, 2-((2R,4S)-2-(1-cyclopropyl-1H-pyrazol-4-yl)tetrahydro-2H-pyran-4-yl)-7-methyl-4-(3-(trifluoromethyl)bicyclo[1.1.1]pentan-1-yl)pteridine]
Cc1nc2nc(N3C[C@@H](c4cnn(C5CC5)c4)O[C@@H](C)C3)nc(-c3ccc(F)cc3F)c2nc1C [Example 426, (2R,6S)-2-(1-cyclopropyl-1H-pyrazol-4-yl)-4-(4-(2,4-difluorophenyl)-6,7-dimethylpteridin-2-yl)-6-methylmorpholine]
Cc1nc2nc(N3C[C@@H](c4cnn(C5CC5)c4)O[C@@H](C)C3)nc(-c3ccc(Cl)cc3F)c2nc1C [Example 424, (2R,6S)-4-(4-(4-chloro-2-fluorophenyl)-6,7-dimethylpteridin-2-yl)-2-(1-cyclopropyl-1H-pyrazol-4-yl)-6-methylmorpholine]
Cc1nc2nc(N3CC(C)OC(c4cnn(C5CC5)c4)C3)nc(C34CC(C(F)(F)F)(C3)C4)c2nc1C (stereo not drawn) [Example 356, 2-(1-cyclopropyl-1H-pyrazol-4-yl)-4-(6,7-dimethyl-4-(3-(trifluoromethyl)bicyclo[1.1.1]pentan-1-yl)pteridin-2-yl)-6-methylmorpholine]
COc1cc([C@H]2CN(c3nc(-c4ccc(Cl)cc4F)c4nc(C)c(C)nc4n3)CCO2)ccn1 [Example 335, (S)-4-(4-(4-chloro-2-fluorophenyl)-6,7-dimethylpteridin-2-yl)-2-(2-methoxypyridin-4-yl)morpholine]
COc1cc(C2CN(c3nc(-c4ccc(Cl)cc4F)c4nc(C)c(C)nc4n3)CCO2)ccn1 (stereo not drawn) [Example 314, 4-(4-(4-chloro-2-fluorophenyl)-6,7-dimethylpteridin-2-yl)-2-(2-methoxypyridin-4-yl)morpholine]
Cc1cnc2c(C34CC(C(F)(F)F)(C3)C4)nc(C3CCOC(c4cnn(C5CC5)c4)C3)nc2n1 (stereo not drawn) [Example 360, 2-(2-(1-cyclopropyl-1H-pyrazol-4-yl)tetrahydro-2H-pyran-4-yl)-7-methyl-4-(3-(trifluoromethyl)bicyclo[1.1.1]pentan-1-yl)pteridine]
Cc1nc2cc(N3CCO[C@@H](c4cnn(C5CC5)c4)C3)nc(-c3ccc(C(F)(F)F)nc3)c2nc1C [Example 384, (2S)-2-(1-cyclopropylpyrazol-4-yl)-4-[2,3-dimethyl-5-[6-(trifluoromethyl)-3-pyridyl]pyrido[3,4-b]pyrazin-7-yl]morpholine]
Cc1cnc2c(C34CC(C(F)(F)F)(C3)C4)nc([C@H]3CCO[C@@H](c4cnn(C5CC5)c4)C3)cc2n1 (racemic) [Example 386, 2-methyl-7-[2-(1-cyclopropylpyrazol-4-yl)tetrahydropyran-4-yl]-5-[3-(trifluoromethyl)-1-bicyclo[1.1.1]pentanyl]pyrido[3,4-b]pyrazine]
COc1cc(C2CN(c3nc4nc(C)c(C)nc4c([C@]45C[C@](C(F)(F)F)(C4)C5)n3)CCO2)ccn1 (mixture of isomers) [Example 318, 4-(6,7-dimethyl-4-(3-(trifluoromethyl)bicyclo[1.1.1]pentan-1-yl)pteridin-2-yl)-2-(2-methoxypyridin-4-yl)morpholine]
